Measured values from patent US9447044B2, “Thioaryl derivatives as GPR120 agonists” (LG LIFE SCIENCES LTD., priority 2012, dated 2016).

Biological target: T1, hGPR120 (Homo sapiens, UniProt Q5NUL3)
T1 construct: expressed in transfected cells; host or cells: CHO-K1
T1 sequence (Q5NUL3 1-361): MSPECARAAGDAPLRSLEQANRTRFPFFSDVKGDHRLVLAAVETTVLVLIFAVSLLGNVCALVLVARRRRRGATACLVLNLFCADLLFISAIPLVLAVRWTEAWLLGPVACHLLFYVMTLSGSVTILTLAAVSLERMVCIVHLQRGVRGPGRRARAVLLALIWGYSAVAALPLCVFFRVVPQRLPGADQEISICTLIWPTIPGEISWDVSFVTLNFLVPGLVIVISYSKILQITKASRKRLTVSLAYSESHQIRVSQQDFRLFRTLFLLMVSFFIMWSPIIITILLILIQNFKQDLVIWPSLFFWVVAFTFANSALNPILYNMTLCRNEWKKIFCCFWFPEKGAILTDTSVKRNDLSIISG
Test: Measurement of activity of GPR120 agonist (cell-based assay), calcium fluorescence
Settings: CHO-K1 cells expressing Ga16 and hGPR120, Calcium 5 dye fluorescence
Procedure: CHO-K1 cells expressing Ga16 and hGPR120 were dispensed into each well of a 96-well plate (3×10^4 cells/100 μl/well) and then incubated in 5% CO2, 37° C. incubator for 18 hours. Each well was treated with 100 μl of Calcium 5 dye (Molecular Devices) solution including 2% DMSO and then incubated in 5% CO2, 37° C. incubator for 1 hour. Serially diluted GPR120 agonists were prepared to a final concentration of 0.5% DMSO in a 96-well plate. Each well was treated with 50 μl of the agonist compounds using Plexstation II, and then fluorescence was measured at Ex 485 nm, Em 525 nm.
Fluorescence increased by the serially diluted GPR120 agonists is calculated as a relative percent (%) value based on the fluorescence represented by the treatment of 0.1% DMSO only. […] The calculation of measurement was carried out by using statistical software (Prizm).
Activity is denoted based on the following criteria: A=>20 μM, B=[…], C=2˜0.2 μM, D=<0.2 μM

Row | Structure (SMILES) | EC50 (activity class) | EC50 (numeric value)
1 | COc1cc(CCC(=O)O)ccc1OCc1cccc(SC2CCCC2)n1 [Example 73, 3-[4-(6-cyclopentylsulfanyl-pyridin-2-ylmethoxy)-3-methoxy-phenyl]-propionic acid] | 200 to 2000 nM | 
2 | CC(C)Sc1cccc(COc2ccc(CCC(=O)O)cc2Cl)n1 [Example 141, 3-[3-chloro-4-(6-isopropylsulfanyl-pyridin-2-ylmethoxy)-phenyl]-propionic acid] | < 200 nM | 
3 | O=C(O)C1CC1c1ccc(OCc2cccc(SCC3CC3)n2)c(Cl)c1 (centres unmarked) [Example 128, 2-[3-chloro-4-(6-cyclopropylmethylsulfanyl-pyridin-2-ylmethoxy)-phenyl]-cyclopropane carboxylic acid] |  | 42 nM
4 | CCCSc1ncccc1COc1ccc(C2CC2C(=O)O)c(C)c1C (centres unmarked) [Example 112, 2-[2,3-dimethyl-4-(2-propylsulfanyl-pyridin-3-ylmethoxy)-phenyl]-cyclopropane carboxylic acid] | > 20000 nM | 
5 | O=C(O)CCc1ccc(OCc2cccnc2SC2CCC2)c(F)c1 [Example 145, 3-[4-(2-cyclobutylsulfanyl-pyridin-3-ylmethoxy)-3-fluoro-phenyl]-propionic acid] | < 200 nM | 
6 | O=C(O)C1CC1c1ccc(OCc2cccc(SC3CCCC3)n2)c(F)c1 (single isomer, unassigned) [Example 134, 2-[4-(6-cyclopentylsulfanyl-pyridin-2-ylmethoxy)-3-fluoro-phenyl]-cyclopropane carboxylic acid] | < 200 nM | 
7 | O=C(O)CCc1ccc(OCc2cccnc2SCC2CC2)cc1 [Example 182] | < 200 nM | 
8 | CC(C)Sc1cccc(COc2c(F)cc(C3CC3C(=O)O)cc2F)n1 (centres unmarked) [Example 152, 2-[3,5-difluoro-4-(6-isopropylsulfanyl-pyridin-2-ylmethoxy)-phenyl]-cyclopropane carboxylic acid] | < 200 nM | 
9 | Cc1cnc(SC(C)C)c(COc2ccc(CC(C)C(=O)O)cc2)c1 (centres unmarked) [Example 3, 3-[4-(2-isopropylsulfanyl-5-methyl-pyridin-3-ylmethoxy)-phenyl]-2-methyl-propionic acid] | 200 to 2000 nM | 
10 | CCC(C)Sc1ncccc1COc1c(F)cc(CCC(=O)O)cc1F (centres unmarked) [Example 19, 3-[4-(2-sec-butylsulfanyl-pyridin-3-ylmethoxy)-3,5-difluoro-phenyl]-propionic acid] | < 200 nM | 
11 | CC(C)Sc1ncccc1COc1ccc(C2CC2C(=O)O)cc1Cl (centres unmarked) [Example 97, 2-[3-chloro-4-(2-isopropylsulfanyl-pyridin-3-ylmethoxy)-phenyl]-cyclopropane carboxylic acid] | < 200 nM | 
12 | CC(Cc1ccc(OCc2cccnc2SC2CCC2)c(Cl)c1)C(=O)O (centres unmarked) [Example 95, 3-[3-chloro-4-(2-cyclobutylsulfanyl-pyridin-3-ylmethoxy)-phenyl]-2-methyl-propionic acid] |  | 88 nM
13 | O=C(O)C1CC1c1ccc(OCc2cccc(SC3CCCC3)n2)c(Cl)c1 (centres unmarked) [Example 100, 2-[3-chloro-4-(6-cyclopentylsulfanyl-pyridin-2-ylmethoxy)-phenyl]-cyclopropane carboxylic acid] | < 200 nM | 
14 | CC(Cc1ccc(OCc2cccnc2SC2CCC2)c(F)c1)C(=O)O (centres unmarked) [Example 37, 3-[4-(2-cyclobutylsulfanyl-pyridin-3-ylmethoxy)-3-fluoro-phenyl]-2-methyl-propionic acid] | < 200 nM | 
15 | O=C(O)C1CC1c1ccc(OCc2cccc(SC3CCC3)n2)c(F)c1 (centres unmarked) [Example 86, 2-[4-(6-cyclobutylsulfanyl-pyridin-2-ylmethoxy)-3-fluoro-phenyl]-cyclopropane carboxylic acid] | < 200 nM | 
16 | O=C(O)C1CC1c1ccc(OCc2cccnc2SCC2CC2)c(F)c1 (centres unmarked) [Example 84, 2-[4-(2-cyclopropylmethylsulfanyl-pyridin-3-ylmethoxy)-3-fluoro-phenyl]-cyclopropane carboxylic acid] | < 200 nM | 
17 | O=C(O)C1CC1c1cc(F)c(OCc2cccnc2SCC2CC2)c(F)c1 (centres unmarked) [Example 63, 2-[4-(2-cyclopropylmethylsulfanyl-pyridin-3-ylmethoxy)-3,5-difluoro-phenyl]-cyclopropane carboxylic acid] | < 200 nM | 
18 | O=C(O)C1CC1c1ccc(OCc2cccnc2SC2CCCC2)c(F)c1 (single isomer, unassigned) [Example 130, 2-[4-(2-cyclopentylsulfanyl-pyridin-3-ylmethoxy)-3-fluoro-phenyl]-cyclopropane carboxylic acid] | 200 to 2000 nM | 
19 | O=C(O)CCc1ccc(OCc2cccc(SCC3CC3)n2)c(Cl)c1 [Example 142, 3-[3-chloro-4-(6-cyclopropylmethylsulfanyl-pyridin-2-ylmethoxy)-phenyl]-propionic acid] |  | 11 nM

Row | Structure (SMILES) | EC50 (activity class) | EC50 (numeric value)
20 | O=C(O)CCc1ccc(OCc2cccc(SCC3CC3)n2)cc1 [Example 183] | 200 to 2000 nM | 
21 | CC(C)Sc1cccc(COc2ccc(CC(C)C(=O)O)cc2F)n1 (centres unmarked) [Example 52, 3-[3-fluoro-4-(6-isopropylsulfanyl-pyridin-2-ylmethoxy)-phenyl]-2-methyl-propionic acid] | < 200 nM | 
22 | CCSc1ncccc1COc1c(F)cc(CCC(=O)O)cc1F [Example 10, 3-[4-(2-ethylsulfanyl-pyridin-3-ylmethoxy)-3,5-difluoro-phenyl]-propionic acid] | < 200 nM | 
23 | CC(C)(C)Sc1ncccc1COc1c(F)cc(CCC(=O)O)cc1F [Example 16, 3-[4-(2-t-butylsulfanyl-pyridin-3-ylmethoxy)-3,5-difluoro-phenyl]-propionic acid] | < 200 nM | 
24 | CC(Cc1ccc(OCc2cccc(SC3CCCC3)n2)c(Cl)c1)C(=O)O (centres unmarked) [Example 94, 3-[3-chloro-4-(6-cyclopentylsulfanyl-pyridin-2-ylmethoxy)-phenyl]-2-methyl-propionic acid] | < 200 nM | 
25 | O=C(O)CCc1ccc(NCc2cccc(SC3CCCC3)n2)cc1 [Example 172, 3-{4-[(6-cyclopentylsulfanyl-pyridin-2-ylmethyl)-amino]-phenyl]-propionic acid] | 2000 to 20000 nM | 
26 | CC(Cc1ccc(OCc2cccnc2SC2CCCC2)cc1)C(=O)O (centres unmarked) [Example 25, 3-[4-(2-cyclopentylsulfanyl-pyridin-3-ylmethoxy)-phenyl]-2-methyl-propionic acid] | < 200 nM | 
27 | O=C(O)C1CC1c1cc(F)c(OCc2cccnc2SC2CCCC2)c(F)c1 (centres unmarked) [Example 62, 2-[4-(2-cyclopentylsulfanyl-pyridin-3-ylmethoxy)-3,5-difluoro-phenyl]-cyclopropane carboxylic acid] | < 200 nM | 
28 | O=C(O)C1CC1c1ccc(OCc2cccc(SC3CCC3)n2)cc1Cl (centres unmarked) [Example 90] | < 200 nM | 
29 | CC(C)Sc1ncccc1COc1ccc(CC(C)(C)C(=O)O)cc1 [Example 69, 3-[4-(2-isopropylsulfanyl-pyridin-3-ylmethoxy)-phenyl]-2,2-dimethyl-propionic acid] | 200 to 2000 nM | 
30 | CC(Cc1cc(F)c(OCc2cccnc2SC2CCCC2)c(F)c1)C(=O)O (centres unmarked) [Example 47, 3-[4-(2-cyclopentylsulfanyl-pyridin-3-ylmethoxy)-3,5-difluoro-phenyl]-2-methyl-propionic acid] | < 200 nM | 
31 | O=C(O)CCc1ccc(OCc2cccc(SC3CCCC3)n2)cc1 [Example 29] | < 200 nM | 
32 | O=C(O)C1CC1c1ccc(OCc2cccnc2SC2CCCC2)c(Cl)c1 (centres unmarked) [Example 101, 2-[3-chloro-4-(2-cyclopentylsulfanyl-pyridin-3-ylmethoxy)-phenyl]-cyclopropane carboxylic acid] | < 200 nM | 
33 | O=C(O)CCc1cc(F)c(OCc2cccnc2SCC(F)(F)F)c(F)c1 [Example 18, 3-{3,5-difluoro-4-[2-(2,2,2-trifluoro-ethylsulfanyl)-pyridin-3-ylmethoxy]-phenyl}-propionic acid] | 200 to 2000 nM | 
34 | O=C(O)CC1COc2c1cc(F)c(OCc1cccnc1SC1CCC1)c2F (centres unmarked) [Example 111, [6-(2-cyclobutylsulfanyl-pyridin-3-ylmethoxy)-5,7-difluoro-2,3-dihydro-benzofuran-3-yl]-acetic acid] | < 200 nM | 
35 | O=C(O)CCc1ccc(OCc2cccnc2SC2CCC2)c(Cl)c1 [Example 158, 3-[3-chloro-4-(2-cyclobutylsulfanyl-pyridin-3-ylmethoxy)-phenyl]-propionic acid] | < 200 nM | 
36 | Cc1ccc(COc2ccc(CCC(=O)O)cc2Cl)c(SC(C)C)n1 [Example 160, 3-[3-chloro-4-(2-isopropylsulfanyl-6-methyl-pyridin-3-ylmethoxy)-phenyl]-propionic acid] |  | 202 nM
37 | Cc1ccc(COc2c(F)cc(CCC(=O)O)cc2F)c(SC2CCCC2)n1 [Example 45, 3-[4-(2-cyclopentylsulfanyl-6-methyl-pyridin-3-ylmethoxy)-3,5-difluoro-phenyl]-propionic acid] | < 200 nM | 
38 | CC(C)Sc1cccc(COc2ccc(C3CC3C(=O)O)cc2F)n1 (single isomer, unassigned) [Example 166, 2-[3-fluoro-4-(6-isopropylsulfanyl-pyridin-2-ylmethoxy)-phenyl]-cyclopropane carboxylic acid] | < 200 nM | 
